Measurements as given in ChEMBL document CHEMBL4190369, “Indolinone Inhibitors of ENT1 for the Treatment of Schizophrenia” (ACS Med Chem Lett, 2017).

Tested on: Mus musculus
Assay: Anti-schizophrenic activity in mouse assessed inhibition of L-687414-induced hyperlocomotion at 30 mg/kg, ip pretreated for 15 mins followed by L-687414 addition measured at 5 mins interval for 30 mins relative to control
Assay type: functional

Row | Compound | inhibition in vivo at 30 mg/kg [%]
1 | Cc1ncc(-c2ccc3c(c2)N(c2cnc(C)c(N4CCOC4=O)n2)C(=O)C3(C)C)cn1 | 89.7
2 | Cc1ncc(-c2ccc3c(c2)N(c2cncc(N4CCOC4=O)n2)C(=O)C3(C)C)cn1 | 87.1
3 | Cc1ncc(-c2ccc3c(c2)N(c2ccc4c(c2)N(C)C(=O)CO4)C(=O)C3(C)C)cn1 | 93.8
4 | Cc1ncc(-c2ccc3c(c2)N(c2cnc(C)c(N4CCOCC4)n2)C(=O)C3(C)C)cn1 | 88.8
5 | Cc1ncc(-c2ccc3c(c2)N(c2cncc(N4CCOCC4)n2)C(=O)C3(C)C)cn1 | 90
6 | Cc1ncc(-c2ccc3c(c2)N(c2cnc(-n4ccnc4C)cn2)C(=O)C3(C)C)cn1 | 96.3
7 | Cc1ncc(-c2ccc3c(c2)N(c2cnc4c(c2)C(C)(C)C(=O)N4C)C(=O)C3(C)C)cn1 | 93.5
8 | Cc1ncc(-c2ccc3c(c2)N(c2cncc(N4CCCC4=O)n2)C(=O)C3(C)C)cn1 | 87.8
9 | Cc1ncc(-c2ccc3c(c2)N(c2ccc4c(n2)N(C)C(=O)C4(C)C)C(=O)C3(C)C)cn1 | 99.5
